# Source: US10774064B2 (Cadent Therapeutics, Inc., priority 2016, dated 2020)
# Target: T1, small-conductance Ca2+-activated K+ channels (SK channels, subtype 2) (Homo sapiens, UniProt Q9H2S1)
# T1 construct: expressed in transfected cells; host or cells: HEK293
# Experiment: whole-cell patch-clamp of ionic current through SK2 channels in HEK293 cells (SC100)
# Format: cell-based
# Conditions: concentration that increases the basal current by 100%; HEK293 cells expressing SK2 channels
# Summary of the method: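 Whole-cell patch-clamp recording of current in HEK293 cells expressing SK2 channels. SC100 is the compound concentration that increases basal current by 100%.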
row,Structure (SMILES),SC100
1,"Cc1cc(C)n(-c2nc3c(c(NC4CCC(F)(F)CC4)n2)CCN(CCO)C3)n1 [Compound 118, 2-(4-((4,4-difluorocyclohexyl)amino)-2-(3,5-dimethyl-1H-pyrazol-1-yl)-5,8-dihydropyrido[3,4-d]pyrimidin-7(6H)-yl)ethan-1-ol]",+ (+ means >1 uM)
2,"Cc1cn(-c2nc(NC3CCC(F)(F)CC3)cc(N3CCOCC3)n2)nc1CF [Compound 281, N-(4,4-difluorocyclohexyl)-2-(3-(fluoromethyl)-4-methyl-1H-pyrazol-1-yl)-6-morpholinopyrimidin-4-amine]",++ (++ means 200 nM-1000 nM)
3,"Cc1ccn(-c2nc(NC3CCC(F)(F)CC3)cc(NC3CC(F)(F)C3)n2)n1 [Compound 147, N4-(3,3-difluorocyclobutyl)-N6-(4,4-difluorocyclohexyl)-2-(3-methyl-1H-pyrazol-1-yl)pyrimidine-4,6-diamine]",++ (++ means 200 nM-1000 nM)
4,"Cc1cc(NC2CCC(F)(F)CC2)nc(-c2nc(CF)cs2)n1 [Compound 273, N-(4,4-difluorocyclohexyl)-2-(4-(fluoromethyl)thiazol-2-yl)-6-methylpyrimidin-4-amine]",++ (++ means 200 nM-1000 nM)
5,"CCOC(=O)N1CC(Oc2cc(NC3CCC(F)(F)CC3)nc(-n3ccc(CF)n3)n2)C1 [Compound 287, ethyl 3-((6-((4,4-difluorocyclohexyl)amino)-2-(3-(fluoromethyl)-1H-pyrazol-1-yl)pyrimidin-4-yl)oxy)azetidine-1-carboxylate]",++ (++ means 200 nM-1000 nM)

# Other lines, results leading:
row,SC100,Structure (SMILES)
1,+ (+ means >1 uM),"Cc1cc(C)n(-c2nc(NC3CCC(F)(F)C3)cc(C(C)(C)O)n2)n1 (centres unmarked) [Compound 214, 2-(6-((3,3-difluorocyclopentyl)amino)-2-(3,5-dimethyl-1H-pyrazol-1-yl)pyrimidin-4-yl)propan-2-ol]"
2,+ (+ means >1 uM),"Cc1cc(C)n(Cc2cc(NC3CCC(F)(F)CC3)nc(-n3ccc(CF)n3)n2)n1 [Compound 300, N-(4,4-difluorocyclohexyl)-6-((3,5-dimethyl-1H-pyrazol-1-yl)methyl)-2-(3-(fluoromethyl)-1H-pyrazol-1-yl)pyrimidin-4-amine]"
3,+ (+ means >1 uM),"Cc1cc(C)n(-c2cc(N3CC4(COC4)C3)nc(NC3CCC(F)(F)CC3)n2)n1 [Compound 108, N-(4,4-difluorocyclohexyl)-4-(3,5-dimethyl-1H-pyrazol-1-yl)-6-(2-oxa-6-azaspiro[3.3]heptan-6-yl)pyrimidin-2-amine]"
4,+ (+ means >1 uM),"Cc1cc(C)n(-c2nc(NC3CCC(F)(F)CC3)cc(OC(F)F)n2)n1 [Compound 209, N-(4,4-difluorocyclohexyl)-6-(difluoromethoxy)-2-(3,5-dimethyl-1H-pyrazol-1-yl)pyrimidin-4-amine]"
5,++ (++ means 200 nM-1000 nM),"Cc1cc(C)n(-c2cc(C#N)cc(NC3CCC(F)(F)CC3)n2)n1 [Compound 174, 2-((4,4-difluorocyclohexyl)amino)-6-(3,5-dimethyl-1H-pyrazol-1-yl)isonicotinonitrile]"
6,++ (++ means 200 nM-1000 nM),"COCC1CN(c2cc(NC3CCC(F)(F)CC3)nc(-n3nc(C)cc3C)n2)CCO1 (centres unmarked) [Compound 194, N-(4,4-difluorocyclohexyl)-2-(3,5-dimethyl-1H-pyrazol-1-yl)-6-(2-(methoxymethyl)morpholino)pyrimidin-4-amine]"
7,++ (++ means 200 nM-1000 nM),"Cc1cc(NC2CCC(F)(F)CC2)nc(-n2nc(C)cc2C)c1 [Compound 159, N-(4,4-difluorocyclohexyl)-6-(3,5-dimethyl-1H-pyrazol-1-yl)-4-methylpyridin-2-amine]"
8,+ (+ means >1 uM),"Cc1cc(C)n(-c2nc(CF)cc(NC3CCCC(F)(F)C3)n2)n1 (centres unmarked) [Compound 358, N-(3,3-difluorocyclohexyl)-2-(3,5-dimethyl-1H-pyrazol-1-yl)-6-(fluoromethyl)pyrimidin-4-amine]"

# Same assay, conditions: whole-cell patch-clamp, HEK293 cells expressing SK2 channels; concentration that increases the basal current by 100%
row,Structure (SMILES),SC100 (μM)
1,Cc1csc(-c2nc(NC3CCC(F)(F)CC3)cc(N3CCCCC3)n2)n1 [IN10881-021.P1],++ (++ means 200 nM-1000 nM)
2,COc1cc(NCCCC(C)(F)F)nc(-c2nc(C)cs2)n1 [IN11107-023-P1],+ (+ means >1 uM)
3,Cc1ccn(-c2cc(N3CC4(CCC4)C3)nc(NC3CCC(F)(F)CC3)n2)n1 [NSSy6580],+ (+ means >1 uM)
4,Cc1nc(-c2nc(NC3CCC(F)(F)CC3)cc(N3CCS(=O)(=O)CC3)n2)cs1 [NSSy6165],+ (+ means >1 uM)
5,Cc1ccn(-c2nc(NC3CCC(C#N)CC3)cc(N3CCOCC3)n2)n1 (centres unmarked) [NSSy6526],+ (+ means >1 uM)
6,Cc1cc(NC2CCC(F)(F)CC2)nc(-n2ccc(C3CC3)n2)n1 [NSSy6935],++ (++ means 200 nM-1000 nM)
7,COCC1CN(c2cc(NC3CCCCC3)nc(-c3nc(C)cs3)n2)CCO1 (centres unmarked) [NSSy6100],++ (++ means 200 nM-1000 nM)
8,Cc1ccn(-c2nc(NC3CCC(F)(F)CC3)cc(C(C)O)n2)n1 (centres unmarked) [IN10876-051-P1],+ (+ means >1 uM)
9,"COC(=O)N1CC(Oc2cc(NC3CC=C(C)CC3)nc(-c3nc(C)cs3)c2)C1 (centres unmarked) [NSSy5980, methyl 3-((2-((4-methylcyclohex-3-en-1-yl)amino)-6-(4-methylthiazol-2-yl)pyridin-4-yl)oxy)azetidine-1-carboxylate]",++ (++ means 200 nM-1000 nM)
10,Cc1csc(-c2nc(NC3CCC(F)(F)CC3)cc(OCc3ncn(C)n3)n2)n1 [NSSy5690],++ (++ means 200 nM-1000 nM)
11,"FC1(F)CCC(Nc2ccnc(-n3ccc(C4CC4)n3)n2)CC1 [NSSy6941, 2-(3-cyclopropyl-1H-pyrazol-1-yl)-N-(4,4-difluorocyclohexyl)pyrimidin-4-amine]",+ (+ means >1 uM)
12,Cc1ccn(-c2cc(C(C)O)nc(NC3CCC(F)(F)CC3)n2)n1 (centres unmarked) [NSSy6650],+ (+ means >1 uM)
13,"FC1(F)CCC(Nc2cc(N3CCOCC3)nc(-n3cccn3)n2)CC1 [IN10973-038-P1, N-(4,4-difluorocyclohexyl)-6-morpholino-2-(1H-pyrazol-1-yl)pyrimidin-4-amine]",+ (+ means >1 uM)
14,Cc1csc(-c2cc(OCc3ncn(C)n3)cc(NC3CCC(F)(F)CC3)n2)n1 [NSSy5686],++ (++ means 200 nM-1000 nM)
15,"COC(=O)N1CC(Oc2cc(NC3CCC(F)(F)CC3)ncn2)C1 [NSSy6061, methyl 3-((6-((4,4-difluorocyclohexyl)amino)pyrimidin-4-yl)oxy) azetidine-1-carboxylate]",+ (+ means >1 uM)
16,Cc1csc(-c2nc(NC3CCC(F)(F)CC3)cc(OCc3ncnn3C)n2)n1 [NSSy5689],+ (+ means >1 uM)
17,CC(=O)N1CCC(Oc2cc(NC3CCC(F)(F)CC3)nc(-c3nc(C)cs3)n2)CC1 [NSSy6258],++ (++ means 200 nM-1000 nM)
18,"Cc1csc(-c2nc(NC3CCC(F)(F)CC3)cc(C(C)(C)O)n2)n1 [IN11030-083-P1, 2-(6-((4,4-difluorocyclohexyl)amino)-2-(4-methylthiazol-2-yl)pyrimidin-4-yl) propan-2-ol]",++ (++ means 200 nM-1000 nM)
19,Cc1csc(-c2nc(NC3CCC(F)(F)CC3)cc(-c3ccccn3)n2)n1 [IN11196-080-P1],+ (+ means >1 uM)
20,"CC(=O)NCc1cc(NC2CCC(F)(F)CC2)nc(-c2nc(C)cs2)c1 [NSSy5640, N-((2-((4,4-difluorocyclohexyl)amino)-6-(4-methylthiazol-2-yl)pyridin-4-yl)methyl)acetamide]",++ (++ means 200 nM-1000 nM)
21,Cc1ccn(-c2cc(COc3ccc(C(N)=O)nn3)cc(NC3CCC(F)(F)CC3)n2)n1 [NSSy6451],+++ (+++ means <200 nM)
22,COC(=O)N1CC(Oc2cc(NC3CCC(F)CC3)nc(-n3ccc(C)n3)n2)C1 (centres unmarked) [NSSy5741],+ (+ means >1 uM)
23,"CC(=O)N1CCN(c2cc(-n3ccc(C(F)F)n3)nc(NC3CCC(F)(F)CC3)n2)CC1 [NSSy6930, 1-(4-(2-((4,4-difluorocyclohexyl)amino)-6-(3-(difluoromethyl)-1H-pyrazol-1-yl)pyrimidin-4-yl)piperazin-1-yl)ethan-1-one]",++ (++ means 200 nM-1000 nM)
24,"COC(C)c1cc(N(C)C2CCC(F)(F)CC2)nc(-n2ccc(C3CC3)n2)n1 (centres unmarked) [IN11104-100-P1, 2-(3-cyclopropyl-1H-pyrazol-1-yl)-N-(4,4-difluorocyclohexyl)-6-(1-methoxyethyl)-N-methylpyrimidin-4-amine]",+ (+ means >1 uM)
25,[2H]C1([2H])OC([2H])([2H])C([2H])([2H])N(c2cc(NC3CCC(F)(F)CC3)nc(-n3ccc(C)n3)n2)C1([2H])[2H] [IN11196-039-P1],++ (++ means 200 nM-1000 nM)
26,COC(=O)NCCOc1nc(-c2nc(C)cs2)nc(NC2CCC(F)(F)CC2)c1OC [IN11104-041-P1],++ (++ means 200 nM-1000 nM)
27,Cc1cc(C)n(-c2nc(NC3CCCC(C(F)(F)F)C3)cc(C(C)O)n2)n1 (centres unmarked) [IN10973-005-P1],+ (+ means >1 uM)

# The remaining lines, values ahead:
row,SC100 (μM),Structure (SMILES)
1,+ (+ means >1 uM),Cc1cc(C)n(-c2nc(NC3CCC(F)(F)CC3)cc(C(O)c3ccccc3)n2)n1 (centres unmarked) [IN10987-030-P1]
2,+ (+ means >1 uM),COc1cnc(-n2nc(C)cc2C)nc1NC1CCC(F)(F)CC1 [NSSy7031]
3,++ (++ means 200 nM-1000 nM),COCc1cc(-n2nc(C)cc2C)nc(NC2CCC(F)(F)CC2)n1 [NSSy6724]
4,++ (++ means 200 nM-1000 nM),Cc1cc(C)n(-c2nc(NC3CCC(F)(F)CC3)cc(N3CC(F)(F)OC(F)(F)C3)n2)n1 [IN11030-035-P1]
5,++ (++ means 200 nM-1000 nM),"COc1cc(NC2CCC(F)(F)CC2)nc(-n2ccc(C)n2)c1 [IN11054-054-P1, N-(4,4-difluorocyclohexyl)-4-methoxy-6-(3-methyl-1H-pyrazol-1-yl)pyridin-2-amine]"
6,++ (++ means 200 nM-1000 nM),Cc1ccn(-c2cc(CO)cc(NC3CCC(F)(F)CC3)n2)n1 [NSSy5827]
7,++ (++ means 200 nM-1000 nM),"Cc1cc(NC2CCC(F)(F)CC2)nc(-n2ccc(C(C)F)n2)n1 (centres unmarked) [IN11243-042-P1, N-(4,4-difluorocyclohexyl)-2-(3-(1-fluoroethyl)-1H-pyrazol-1-yl)-6-methylpyrimidin-4-amine]"
